Experimental data taken from patent US11065251B2, “PAK1 inhibitors and uses thereof” (Albert Einstein College of Medicine, priority 2016, dated 2021).
In brackets after ≈: the same amount, converted by molar mass. Read-outs that look alike come from different tables or passages of the source.

How the values were obtained:
Solubility assessment = assay type: physicochemical; details: kinetic from dmso stock
[1] = Microsomal stability, rat (RLM); assay type: in vitro ADME
[2] = Microsomal stability, human (HLM); assay type: in vitro ADME
[3] = Pharmacokinetic (PK) assessment in rats; assay type: in vivo; details: for Cmax / Tmax / MRT last / half-life / AUC(0-t) / AUC(0-inf): rat, plasma; for MRT last: read-out: MRT MRT last; for half-life: read-out: T ½ HL_Lambda_z (converted); for AUC(0-t): read-out: AUC0→t AUC last; for AUC(0-inf): read-out: AUC0→∞ AUC INF_obs
Caco-2 permeability = assay type: in vitro ADME; details: human
PAK1 = PAK1 (Homo sapiens, UniProt Q13153); assay: PAK1 IC50 determination, Z'-LYTE kinase assay; assay type: biochemical; details: [ATP]=10×Km; [PAK1]=1 ng; read-out: IC50 against PAK1
Chain of PAK1 (Q13153 whole entry): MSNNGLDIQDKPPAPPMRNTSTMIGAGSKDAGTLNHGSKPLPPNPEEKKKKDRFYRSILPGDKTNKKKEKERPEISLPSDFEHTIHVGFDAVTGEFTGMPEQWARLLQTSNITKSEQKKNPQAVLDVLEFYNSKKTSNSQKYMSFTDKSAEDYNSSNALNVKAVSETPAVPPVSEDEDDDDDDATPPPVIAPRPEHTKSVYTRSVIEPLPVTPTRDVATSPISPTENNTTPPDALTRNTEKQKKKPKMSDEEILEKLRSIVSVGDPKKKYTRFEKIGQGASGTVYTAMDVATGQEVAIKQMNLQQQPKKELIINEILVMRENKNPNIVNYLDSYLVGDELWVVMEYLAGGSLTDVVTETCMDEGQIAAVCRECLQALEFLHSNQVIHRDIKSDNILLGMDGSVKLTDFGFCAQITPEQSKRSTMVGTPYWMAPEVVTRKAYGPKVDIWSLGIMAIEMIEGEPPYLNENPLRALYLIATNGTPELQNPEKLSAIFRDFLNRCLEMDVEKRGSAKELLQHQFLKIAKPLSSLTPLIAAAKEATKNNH
Procedure: Protocol for determining IC50 Values for test compounds at [ATP]=10×Km; [PAK1]=1 ng
Add 2 ml 5× Kinase Buffer to 8 ml water to prepare […] of Kinase Buffer A.
• Thaw the concentrated stock of test compound at room temperature. • 2.1. Add 10 μl of 100% DMSO to row A, columns 2-11 (wells A2-A11) in a 96-well assay plate (non-binding surface). To well A1, add 15 μl of the concentrated stock of test compound. This will be the highest concentration of test compound in a 10-point titration curve. Use a concentration that is 100× the final desired 1× concentration per 10 μl kinase reaction. For example, if the final 1× concentration of 100 μM is desired for the highest concentration of test compound in the 10 point titration curve, add 15 μl of 10 mM test compound to well A1. • 2.2. Titrate the 100× test compound three-fold across the assay plate from well A1 to well A10. To perform this threefold titration, transfer 5 μl of the 100× test compound from well A1 to the 10 μl of 100% DMSO in well A2. Repeat for wells A2-A10. Discard the final 5 μl from well A10 so that all wells contain 10 μl. […] This completes the 10-point three-fold titration of test compound at 100× concentration. • 2.3. Transfer a 2 μl aliquot of the 100× test compound titration series from each well in row A of the 96-well assay plate (wells A1-A12) to row B (wells B1-B12). Add 48 μl of complete kinase reaction buffer to each well in row B to dilute the 100× three-fold titration series of test compound to 4× (the DMSO will also be diluted, to 4%). • 2.4. Transfer 2.5 μl of the 4× concentrated three-fold titration series of test compound from row B of the 96-well assay plates to quadruplicate wells of a 384-well assay plate. Each well in columns 21-24 should contain 2.5 μl of 4% DMSO (no compound) in complete kinase reaction buffer. This 2.5 μl addition of 4× test compound in 4% DMSO produces a 1× concentration of test compound in 1% DMSO for a 10 μl kinase reaction. • 2.5. Dispense 2.5 μl of complete kinase reaction buffer to each well in columns 23-24 of the 384-well assay plate.
• 1. Prepare 500 μl of 4 μM Z′-LYTE® Phospho-peptide by adding 2 μl of 1 mM Z′-LYTE® Phospho-peptide to 498 μl of complete kinase reaction buffer. • 2. Dispense 5 μl of the 4 μM Z′-LYTE® Phospho-peptide (2×) to each well in column 24 of the 384-well assay plate. • 3. Prepare 1000 μl of 4 μM Z′-LYTE® Peptide Substrate (2×)/2× kinase solution in complete kinase reaction buffer. If necessary, prepare an intermediate dilution of the kinase in complete kinase reaction buffer before preparing the Z′-LYTE™ Peptide Substrate (2×)/2× kinase solution. Use the appropriate 2× kinase concentration in the assay to phosphorylate 20-50% of the 0% inhibition controls at the ATP concentration desired. • 4. […]

solubility (Solubility assessment; aqueous buffer, UB pH 2, 1% DMSO, read-out: Solubility in UB pH 2, 1% DMSO): 59 µM (≈ 32.8 µg/mL)
solubility (Solubility assessment; aqueous buffer, UB pH 7, 1% DMSO, read-out: Solubility in UB pH 7, 1% DMSO): 25 µM (≈ 13.9 µg/mL)
solubility (Solubility assessment; simulated gastric fluid, SGF, 1% DMSO, read-out: Solubility in SGF, 1% DMSO): 58 µM (≈ 32.2 µg/mL)
half-life ([1]; liver microsomes, rat microsomes, read-out: t½): 2.45 h
microsomal CLint ([1]; rat, rat liver microsomes, RLM): 9 µL/min/mg
microsomal CLint ([2]; human, human liver microsomes, HLM): 12 µL/min/mg
half-life ([2]; liver microsomes, human microsomes, read-out: t½): 1.98 h
Cl_obs ([3]; IV, 3 mg/kg): 4.97 mL/min/kg
Vss_obs ([3]; IV, 3 mg/kg): 1.705 L/kg
Biovailability ([3]; PO 30 mg/kg versus IV 3 mg/kg): 13.9%
Cmax ([3]; IV, 3 mg/kg): 3620 ng/mL
Tmax ([3]; IV, 3 mg/kg): 0.17 h
MRT last ([3]; IV, 3 mg/kg): 5 h
half-life ([3]; IV, 3 mg/kg): 5 h
Cmax ([3]; PO, 30 mg/kg): 943 ng/mL
Tmax ([3]; PO, 30 mg/kg): 8 h
MRT last ([3]; PO, 30 mg/kg): 10 h
half-life ([3]; PO, 30 mg/kg): 6.19 h
AUC(0-t) ([3]; iv, 3 mg/kg, IV, 3 mg/kg): 9750 ng·h/mL
AUC(0-inf) ([3]; iv, 3 mg/kg, IV, 3 mg/kg): 10100 ng·h/mL
AUC(0-t) ([3]; po, 30 mg/kg, PO, 30 mg/kg): 12600 ng·h/mL
AUC(0-inf) ([3]; po, 30 mg/kg, PO, 30 mg/kg): 14000 ng·h/mL
efflux ratio (Caco-2 permeability; Caco-2, read-out: Assym index): 1
Papp A→B (Caco-2 permeability; Caco-2, A-B): 3.9 ×10⁻⁶ cm/s
Papp B→A (Caco-2 permeability; Caco-2, B-A): 3.8 ×10⁻⁶ cm/s
IC50 (PAK1): < 30 nM
Structure (SMILES): CCn1c(=O)c(-c2ccc(-c3nc(C)c[nH]3)cc2Cl)cc2cnc(Nc3ccc(N4CCN(C)CC4)cc3)nc21 [Compound 42-0125_1]
